# Patent US20220000873A1, “S3QELS TO PROTECT AGAINST INTESTINAL PERMEABILITY” (Buck Institute for Research on Aging, priority 2018, published 2022)
# Assays:
# [1] = tested on: C57BL/6 mice fed a high-fat diet; test: Mouse intestinal permeability (plasma FITC-dextran after gavage and fecal albumin); format: in vivo; settings: high-fat diet (60% kcal) with 200 mg/kg S3QEL in diet, 16 weeks; plasma FITC-dextran and fecal albumin (FIG. 5A, B)
# Method: (§1) Six-week-old C57BL/6 mice were purchased from Jackson Laboratories and acclimated in-house for two weeks before the study. At 8 weeks of age, mice were randomized into groups based on weight and fed either a control semi-purified diet D12450J containing 10% fat kcal, a 60% fat kcal diet D12492, or a custom-mixed 60% fat kcal diet D12492 containing 200 mg/kg of S3QELs. Diets were purchased from Research Diets and were gamma-irradiated. Mice were maintained on the experimental diets for 16 weeks in total. Food consumption was measured daily in a semiquantitative fashion. The food was weighed before placing in the cage, and then weighed again 24 h later. The total food weight difference within 24 h was divided by the number of mice in the cage to determine average food consumption per mouse. All experiments involving the use of mice were reviewed and approved by the Institutional Animal Care and Use Committee (IACUC) of the Buck Institute.
# Mice were fasted for 4 h prior to assay. […] Blood plasma samples were diluted appropriately using 1×PBS and FITC-dextran fluorescence was measured at Ex 485 nm/Em 535 nm. FITC-dextran amount was determined using standard curves generated from a known amount of FITC-dextran titrated in plasma from control or high fat-fed mice. […]
# [2] = tested on: C57BL/6 mice fed a high-fat diet; test: Mouse intestinal gene expression (qPCR, colon and distal small intestine); format: in vivo; settings: high-fat diet with 200 mg/kg S3QEL, 16 weeks
# Method: as §1, with “The total food weight difference within 24 h was divided by the number of mice in the cage to determine average food consumption per mouse. All experiments involving the use of mice were reviewed and approved by the Institutional Animal Care and Use Committee (IACUC) of the Buck Institute.” left out
# RNA from the fly intestine lysates, and the aqueous phase from the mouse intestinal Trizol lysates, were further processed to isolate RNA using a Quick-RNA™ MiniPrep Kit (Zymo Research) according to the manufacturer's guidelines. […] The quantity and quality of fly and mouse RNA samples were determined using a NanoDrop 1000 spectrophotometer (Thermo Scientific). 1 μg of total RNA from either fly or mouse intestine was used in a total reaction volume of […] containing 4 μL of iScript Reverse Transcription Supermix (Bio-Rad) to synthesize cDNA according to the manufacturer's guidelines. cDNA was stored at −20° C. before carrying out quantitative RTPCR. […]
compound,measurement,setting,value
Cc1ccc(-n2ncc3c(N(Cc4ccccc4)C(C)C)ncnc32)cc1Cl [S3QEL2.2],increases in intestinal permeability in mice,[1],strongly protected
same,decrease in tight-junction gene expression,"[2]; both colon and distal small intestine (FIG. 5C, FIG. 11)",protected against the decrease
same,decrease in mucin gene expression,"[2]; both colon and distal small intestine (FIG. 5D, FIG. 11)",protected against the decrease
